The assay deals with immunoglobulin titers (IgG and IgM) specific for M. tuberculosis. On the set-up: species or system rabbits. The conditions noted are these: rabbit, in vivo, sc.

Consider “FNNFTVSFWLRVPKVSASHLE [FNN-21, reference compound]”, for which the “immunoglobulin titer, average absorbance, Day 1” value was 0.14 AU 405 nm; the “immunoglobulin titer, average absorbance, Day 3” value was 0.15 AU 405 nm; the “immunoglobulin titer, average absorbance, Day 5” value turned out to be 0.13 AU 405 nm; the “immunoglobulin titer, average absorbance, Day 7” value is 0.16 AU 405 nm. The “immunoglobulin titer, average absorbance, Day 10” value amounted to 0.25 AU 405 nm and the “immunoglobulin titer, average absorbance, Day 14” value was determined as 0.35 AU 405 nm.

Values taken from patent US7608589B2, “Peptidyl diacylglycerides” (priority 2005, dated 2009).
